# Test results from patent publication US12274756B2, “Methods of treating and diagnosing epilepsy” (YALE UNIVERSITY, priority 2019, dated 2025).
# System: Rheb^CA neurons
# Assay: Whole cell patch clamp recording in acute slices, Rheb^CA (FCM) neurons
# Assay type: cell-based, mice
# Description: Each DNA plasmid was diluted in sterile PBS (pH 7.4) to a final concentration of 1.5-3 μg/μl (specific concentrations below). About 1 μl of DNA solution containing 0.1% fast green was injected into the lateral ventricle of E15.5±0.5 fetuses with a glass pipette. After injection, PBS soaked tweezer-type electrodes (model 520, BTX) were positioned on heads of the fetuses across the uterine wall and 6 square-pulses (42V, 50 ms duration, 950 ms intervals) were applied using a pulse generator (ECM830, BTX), Mice were prescreened for successful electroporation on a fluorescence enabled stereo microscope (SZX16, Olympus) prior to recruitment for EEG monitoring. To generate epilepsy-associated FCM, a DNA solution composed of pCAG-RhebS16H (Rheb^CA, 2 μg/μl) and pCAG-tdTomato (1 μg/μl) was injected in half of all fetuses while pCAG-GFP (3 μg/μl) containing solution was injected in the remaining littermates as controls. To silence FCM neurons, pCAG-Kir2.1-T2A-tdTomato (2 μg/μl)+pCAG-Rheb^CA (2 μg/μl) was injected in half of the fetuses while the remaining half received pCAG-Rheb^CA (2 μg/μl)+pCAG-GFP (2 μg/μl) as controls.
# 1-5-week-old mice were used for acute slices. Tissue was dissected and sliced in ice cold artificial cerebral spinal fluid (aCSF)oxygenated with 95% O2/5% CO2. The aCSF contained (all in mM): 124 NaCl, 3 KCl, 1.25 NaH2PO4, 1 MgSO4, 26 NaHCO3, 10 Dextrose, 2 CaCl2, 0.4 ascorbate, 4 Na-Lactate, 2 Na-Pyruvate (290±5 mOsm/kg, pH 7.2). Coronal sections (350 μm) were prepared using a vibratome (Vibratome 1000). Sections were incubated in aCSF at 32° C. for 45 minutes before returning to room temperature (25° C.) where they were kept for 8 to 10 hours during experimentation. Fluorescent neurons in the mPFC were visualized using epifluorescence on an Olympus BX51WI microscope with a 40× water immersion objective (Olympus, LUMPlanFL/IR). Whole-cell recordings were performed at 28° C. using pulled glass pipettes ([…]) filled with internal solution (in mM: 110 K-gluconate, 4 KCL, 10 HEPES, 10 di-tris-phosphocreatine, 4 Mg-ATP, 0.3 Na-GTP). Recordings were acquired with an amplifier (Axopatch 200B, Molecular Devices), The resting membrane potential was recorded within the first 10 seconds after achieving whole, cell configuration in current-clamp mode, while the cell is at rest without any holding current. The membrane conductance was calculated using the average membrane potential change from ten hyperpolarizing current injections of −500 pA in current-clamp mode when the cell is at rest. The action potential half width was calculated at half of the peak amplitude of a single action potential induced by current injection. The action potential firing threshold was defined as the membrane potential at which the first derivative of an action potential in current-clamp mode achieves 10% of its peak velocity (dV/dt). The action potential input-output curve was generated by injecting positive current in current-clamp mode from 0 to 2 nA at 100 pA increments for 500 msec.
# [1] = Rheb^CA neurons with zatebradine
Structure (SMILES),"neurons generating repetitive action potentials (Rheb^CA neurons, forskolin bath-application)","h current amplitude difference (ΔI) (500 ms-long voltage step, Rheb^CA vs Rheb^CA+zatebradine)",residual inward current at −90 mV [1],resting membrane potential (RMP) [1],"hyperpolarization-induced voltage sag response (Rheb^CA neurons, −500 pA current step, zatebradine 40 μM)",HCN currents in Rheb^CA neurons before seizure onset (slices from P8-P12 mice),"hyperpolarization-activated inward currents (voltage-clamp steps from −40 to −130 mV, in the presence of zatebradine, not fully blocked)"
C=C[C@@]1(C)CC(=O)[C@]2(O)[C@@]3(C)[C@@H](O)CCC(C)(C)[C@@H]3[C@H](O)[C@H](OC(C)=O)[C@@]2(C)O1 [forskolin],4/9,–,–,–,–,–,–
COc1ccc(CCN(C)CCCN2CCc3cc(OC)c(OC)cc3CC2=O)cc1OC [zatebradine],–,significantly reduced,no residual inward current,shifted RMP of cells to hyperpolarized values similar to those of control neurons,eliminated the sag response,zatebradine-sensitive,significantly reduced
